Laboratory results: patent US4181573A, “Process for the production of antibiotic X-14547” (Hoffmann-La Roche Inc., priority 1978, dated 1980)
In brackets after ≈: the same amount, converted by molar mass. Several values for one entry are separate records, joined by “and”; a condition that tells them apart may be missing. Identical values can stand only once.

Assays:
[1] = Oral toxicity (LD50) in mice; conditions: mouse, in vivo
[2] = test system: Bacillus megaterium ATCC 8011; assay: Antimicrobial activity, agar well diffusion assay; type: cell-based; conditions: Priestia megaterium, ATCC8011, lowest twofold dilution giving a zone of inhibition, read-out: Minimum inhibitory concentration
Sarcina lutea ATCC 9341 = assay: Antimicrobial activity, agar well diffusion assay; type: cell-based; conditions: Micrococcus luteus, ATCC9341, lowest twofold dilution giving a zone of inhibition, read-out: Minimum inhibitory concentration
[3] = test system: Bacillus species E ATCC 27859; assay: Antimicrobial activity, agar well diffusion assay; type: cell-based; conditions: ATCC27859, lowest twofold dilution giving a zone of inhibition, read-out: Minimum inhibitory concentration
[4] = test system: Bacillus subtilis NRRL 558; assay: Antimicrobial activity, agar well diffusion assay; type: cell-based; conditions: NRRL558, lowest twofold dilution giving a zone of inhibition, read-out: Minimum inhibitory concentration
[5] = test system: Staphylococcus aureus ATCC 6538P; assay: Antimicrobial activity, agar well diffusion assay; type: cell-based; conditions: ATCC6538P, lowest twofold dilution giving a zone of inhibition, read-out: Minimum inhibitory concentration
[6] = test system: Bacillus species TA ATCC 27860; assay: Antimicrobial activity, agar well diffusion assay; type: cell-based; conditions: ATCC27860, lowest twofold dilution giving a zone of inhibition, read-out: Minimum inhibitory concentration
[7] = test system: Mycobacterium phlei ATCC 355; assay: Antimicrobial activity, agar well diffusion assay; type: cell-based; conditions: Mycolicibacterium phlei, ATCC355, lowest twofold dilution giving a zone of inhibition, read-out: Minimum inhibitory concentration
[8] = test system: Streptomyces cellulosae ATCC 3313; assay: Antimicrobial activity, agar well diffusion assay; type: cell-based; conditions: ATCC3313, lowest twofold dilution giving a zone of inhibition, read-out: Minimum inhibitory concentration
[9] = test system: Paecilomyces varioti ATCC 26820; assay: Antimicrobial activity, agar well diffusion assay; type: cell-based; conditions: ATCC26820, lowest twofold dilution giving a zone of inhibition, read-out: Minimum inhibitory concentration
gram-positive bacteria = assay: Growth of gram-positive bacteria (summary in words); type: cell-based
[10] = test system: volatile fatty acids produced in the rumen; assay: In vitro rumen fermentation, ratio of volatile fatty acids (GLC); parameters: species or system steer; conditions: 4 hrs.; for μmoles C3 /μmoles C2 + μmoles nC4, means / μmoles C3 /μmoles C2 + μmoles nC4, replicate fermentations: 38° C.
Experimental: Rumen fluid is obtained from a steer with a fistulated rumen. The steer is maintained on the following ration:
The rumen fluid is immediately strained through a #30 mesh sieve. For each fermentation, 75 ml of the resulting fluid is added to a 250 ml flask containing the following:
1 g of 80%:20% finely ground grain: hay ration;
1 ml of an 18% aqueous glucose solution (1 millimole per flask);
1.5 ml of a 3.1% aqueous urea solution (0.76 millimole per flask);
60 micromoles of each of the 10 essential amino acids (arginine, histidine, leucine, methionine, threonine, valine, lysine, isoleucine, phenylalanine,tryptophan);
Carbon dioxide is continuously passed through the hood. […] Three ml of the supernate is added to 1 ml of a 25% metaphosphoric acid solution containing 23 micromoles 2-methyl valeric acid as an internal standard. The resulting fluid is permitted to sit at room temperature for 30 minutes. The fluid is filtered through a […] Millipore filter and refrigerated until gas-liquid chromatographic analyses for volatile fatty acids.

ruminant animals = assay: Efficiency of feed utilization on oral administration; type: in vivo; conditions: administered orally
[11] = test system: DOCA-Na Sprague Dawley (Charles River) male rats; assay: Antihypertensive activity in DOCA-Na hypertensive rats, systolic blood pressure; type: in vivo, rat; conditions: 10 MG/KG × 3 days PO; for SYSTOLIC BLOOD PRESSURE, PCT CHANGE: change from pre drug controls
Experimental: (§1) Antihypertensive activity is tested for in the DOCA-Na Sprague Dawley (Charles River) male rats weighing 170-210 grams. DOCA-Na hypertension is produced by unilateral nephrectomy followed by subcutaneous implantation of a 25 mg. desoxycortico sterone (DOCA) pellet. Animals are placed in individual cages receiving 0.9% sodium chloride solution and rat chow diet ad libitum. Two weeks are allowed to elapse from the time of surgery for development of hypertension, i.e., systolic blood pressure of at least 150 mm. Hg.
(§2) Systolic blood pressure and heart rate are measured indirectly from the tail of unanesthetized rats, using a pneumatic pulse transducer. Control readings are taken prior to drug and at 1, 3, 6 and 24 hours post drug.
(§3) The results are expressed as absolute values and percent changes from controls.

[12] = test system: DOCA-Na Sprague Dawley (Charles River) male rats; assay: Cardiac rate in DOCA-Na hypertensive rats; type: in vivo, rat; conditions: 10 MG/KG × 3 days PO; for CARDIAC RATE, PCT CHANGE: change from pre drug controls; for CARDIAC RATE, individual rats: rats 1-6
Experimental: as §1, §2, §3

[13] = test system: Bacillus sp. TA ATCC 27860; assay: Antimicrobial activity of co-metabolite (M.I.C.); type: cell-based; conditions: ATCC27860
Text: (§4) *Minimum inhibitory concentration per ml. in mcg.

[14] = test system: Escherichia coli ATCC 27856; assay: Antimicrobial activity of co-metabolite (M.I.C.); type: cell-based; conditions: ATCC27856
Text: as §4

[15] = test system: Klebsiella pneumoniae ATCC 27858; assay: Antimicrobial activity of co-metabolite (M.I.C.); type: cell-based; conditions: ATCC27858
Text: as §4

[16] = test system: Paecilomyces varioti ATCC 26820; assay: Antimicrobial activity of co-metabolite (M.I.C.); type: cell-based; conditions: ATCC26820
Text: as §4

[17] = test system: Pseudomonas aeruginosa ATCC 8709; assay: Antimicrobial activity of co-metabolite (M.I.C.); type: cell-based; conditions: ATCC8709
Text: as §4

[18] = test system: Staphylococcus aureus ATCC 6538P; assay: Antimicrobial activity of co-metabolite (M.I.C.); type: cell-based; conditions: ATCC6538P
Text: as §4

Question: Which results are given for `CCC(=CC=CC1C=CC2C(CC)CCC2C1C(=O)c1ccc[nH]1)C1OC(C(C)C(=O)O)CCC1C` [Antibiotic X-14547, α-(R), 5 (S)-dimethyl-6(R)-{1-ethyl-4-[4-(R)-(2-pyrrolyl-carbonyl)-1(S)-ethyl-3a(R),4,5(R),7a(R)-tetrahydroindan-5-yl]-1(E), 3(E)-butadienyl}tetrahydropyran-2-acetic acid]?
Answer: LD50 at 24 h [1]: 129 mg/kg; MIC [2]: 0.1 µg/mL (≈ 0.203 µM); MIC (Sarcina lutea ATCC 9341): 0.1 µg/mL (≈ 0.203 µM); MIC [3]: 0.2 µg/mL (≈ 0.405 µM); MIC [4]: 0.1 µg/mL (≈ 0.203 µM); MIC [5]: 0.2 µg/mL (≈ 0.405 µM); MIC [6]: 0.2 µg/mL (≈ 0.405 µM); MIC [7]: 3.1 µg/mL (≈ 6.28 µM); MIC [8]: 0.8 µg/mL (≈ 1.62 µM); MIC [9]: 6.3 µg/mL (≈ 12.8 µM); effect on growth of gram-positive bacteria (gram-positive bacteria): adversely affecting the growth of certain gram-positive bacteria; ratio of propionate (C3) to acetates and n-butyrates ([10]; 10 and 25 ppm, versus controls): significantly improved; μmoles C3 /μmoles C2 + μmoles nC4, means ([10]; 10 ppm): 0.491; μmoles C3 /μmoles C2 + μmoles nC4, replicate fermentations ([10]; 10 ppm): 0.493 and 0.489; μmoles C3 /μmoles C2 + μmoles nC4, means ([10]; 25 ppm): 0.521; μmoles C3 /μmoles C2 + μmoles nC4, replicate fermentations ([10]; 25 ppm): 0.531 and 0.510; efficiency of feed utilization (ruminant animals): increases the efficiency of feed utilization in ruminant animals; SYSTOLIC BLOOD PRESSURE, MEAN ([11]; day 1): 188.3 mmHg; SYSTOLIC BLOOD PRESSURE, PCT CHANGE ([11]; day 1): -9.0 PCT; SYSTOLIC BLOOD PRESSURE, individual rats ([11]; day 1, rats 1-6): 216 mmHg and 178 mmHg and 184 mmHg and 198 mmHg and 151 mmHg and 203 mmHg; SYSTOLIC BLOOD PRESSURE, MEAN ([11]; day 2, first line): 185.7 mmHg; SYSTOLIC BLOOD PRESSURE, PCT CHANGE ([11]; day 2, first line): -10.3 PCT; SYSTOLIC BLOOD PRESSURE, individual rats ([11]; day 2, first line, rats): 211 mmHg and 201 mmHg and 176 mmHg and 168 mmHg and 190 mmHg; SYSTOLIC BLOOD PRESSURE, MEAN ([11]; day 2, second line): 171.3 mmHg; SYSTOLIC BLOOD PRESSURE, PCT CHANGE ([11]; day 2, second line): -17.1 PCT; SYSTOLIC BLOOD PRESSURE, individual rats ([11]; day 2, second line, rats 1-6): 184 mmHg and 174 mmHg and 161 mmHg and 165 mmHg and 179 mmHg; SYSTOLIC BLOOD PRESSURE, MEAN ([11]; day 3, first line): 205.0 mmHg; SYSTOLIC BLOOD PRESSURE, PCT CHANGE ([11]; day 3, first line): -0.7 PCT; SYSTOLIC BLOOD PRESSURE, individual rats ([11]; day 3, first line, rats 1-6): 214 mmHg and 195 mmHg and 193 mmHg and 219 mmHg and 198 mmHg and 211 mmHg; SYSTOLIC BLOOD PRESSURE, MEAN ([11]; day 3, second line): 196.0 mmHg; SYSTOLIC BLOOD PRESSURE, PCT CHANGE ([11]; day 3, second line): -5.2 PCT; SYSTOLIC BLOOD PRESSURE, individual rats ([11]; day 3, second line, rats 1-6): 210 mmHg and 177 mmHg and 173 mmHg and 206 mmHg and 190 mmHg and 220 mmHg; SYSTOLIC BLOOD PRESSURE, MEAN ([11]; day 4): 202.8 mmHg; SYSTOLIC BLOOD PRESSURE, PCT CHANGE ([11]; day 4): -1.7 PCT; SYSTOLIC BLOOD PRESSURE, individual rats ([11]; day 4, rats 1-6): 197 mmHg and 172 mmHg and 229 mmHg and 212 mmHg and 179 mmHg and 228 mmHg; CARDIAC RATE, MEAN ([12]; day 1): 420.0 BEATS/MIN; CARDIAC RATE, PCT CHANGE ([12]; day 1): 2.0 PCT; CARDIAC RATE, individual rats ([12]; day 1): 480 BEATS/MIN and 360 BEATS/MIN and 450 BEATS/MIN and 440 BEATS/MIN and 390 BEATS/MIN and 400 BEATS/MIN; CARDIAC RATE, MEAN ([12]; day 2, first line): 400.0 BEATS/MIN; CARDIAC RATE, PCT CHANGE ([12]; day 2, first line): -2.6 PCT; CARDIAC RATE, individual rats ([12]; day 2, first line): 430 BEATS/MIN and 320 BEATS/MIN and 360 BEATS/MIN and 490 BEATS/MIN and 370 BEATS/MIN; CARDIAC RATE, MEAN ([12]; day 2, second line): 378.3 BEATS/MIN; CARDIAC RATE, PCT CHANGE ([12]; day 2, second line): -8.1 PCT; CARDIAC RATE, individual rats ([12]; day 2, second line): 420 BEATS/MIN and 310 BEATS/MIN and 400 BEATS/MIN and 380 BEATS/MIN and 450 BEATS/MIN; CARDIAC RATE, MEAN ([12]; day 3, first line): 363.3 BEATS/MIN; CARDIAC RATE, PCT CHANGE ([12]; day 3, first line): -11.3 PCT; CARDIAC RATE, individual rats ([12]; day 3, first line): 380 BEATS/MIN and 360 BEATS/MIN and 370 BEATS/MIN and 350 BEATS/MIN; CARDIAC RATE, MEAN ([12]; day 3, second line): 365.0 BEATS/MIN; CARDIAC RATE, PCT CHANGE ([12]; day 3, second line): -10.8 PCT; CARDIAC RATE, individual rats ([12]; day 3, second line): 370 BEATS/MIN and 360 BEATS/MIN and 350 BEATS/MIN and 380 BEATS/MIN; CARDIAC RATE, MEAN ([12]; day 4): 356.7 BEATS/MIN; CARDIAC RATE, PCT CHANGE ([12]; day 4): -13.1 PCT; CARDIAC RATE, individual rats ([12]; day 4): 370 BEATS/MIN and 320 BEATS/MIN and 360 BEATS/MIN and 350 BEATS/MIN and 340 BEATS/MIN and 400 BEATS/MIN

Question: For `CCC1(OC)C(=O)Nc2ccccc21` (stereo not drawn) [3-ethyl-1,3-dihydro-3-methoxy-2H-indole-2-one], which MIC [13] is on record?
Answer: Its MIC is 2.5 µg/mL.

Question: What about the MIC [14] of the same compound?
Answer: Its MIC is 5 µg/mL.

Question: And the MIC [15]?
Answer: Its MIC is 5 µg/mL.

Question: And the MIC [16]?
Answer: The MIC was 2.5 µg/mL.

Question: And the MIC [17]?
Answer: Its MIC is 5 µg/mL.

Question: And the MIC [18]?
Answer: The MIC was 5 µg/mL.

Question: What about the “effect on growth of gram-positive bacteria” value (gram-positive bacteria) of the same compound?
Answer: Its value is “adversely affecting the growth of certain gram-positive bacteria”.
